# Tested on: Mycobacterium tuberculosis
# Assay: Antibacterial activity against multidrug resistant Mycobacterium tuberculosis
# Format: functional
structure (smiles),measurement,value
CCCCCCCCCCS(=O)(=O)CC(N)=O,MIC,0.75 to 1.5 µg/mL

# Source: ChEMBL document CHEMBL4346683 (Eur J Med Chem, 2019)
